Experimental data published in PMC11231610, “Fatty acid binding to the human transport proteins FABP3, FABP4, and FABP5 from a Ligand’s perspective” (The Journal of Biological Chemistry, 2024).
“And” between values parts separate entries of the source, which are not always exact repeats. Equal values may be shown once. Read-outs that look alike come from different tables or passages of the source.

Legend:
Assay type in all cases: binding
FABP3 = target: T1, FABP3 (Homo sapiens, UniProt P05413); test: CW EPR spectra and spectral simulations of spin-probed fatty acids with FABP3; conditions: for increase of intermediately bound component: FABPx/16-DSA 20/20 μM
T1 construct: purchased Sigma Aldrich
Experimental: (§1) For a more in-depth view of the binding mechanism, CW EPR spectra of 5/16-DSA with concentration series of the FABPs were measured and simulated. […] Equal concentrations of 20 μM of each spin probe (5- and 16-DSA) were mixed with FABP concentrations of 0 to 200 μM, increasing the resulting ligand/protein ratio in the samples stepwise from 1/0 to 1/10.
(§2) To analyze the spectra quantitatively, subsequent EPR spectral simulations were performed (Fig. 2, B and C). […] For a better understanding, a first interpretation of these components is given at this point. The rotational dynamics are thought to be indirectly proportional to the strength of intermolecular interactions between fatty acid and FABP. Therefore, they are indicative of the binding state of the fatty acids. Higher rotational correlation times signalize lower ligand dynamics and stronger interactions with the protein. […] This exchange broadening can only occur if radicals are located very close distance each other, colliding with each other, leading to partial overlap of spin-bearing orbitals.
(§3) The fractions (weights) Φx of the spectral components were extracted from the EPR simulations of the concentration series and were used to calculate the concentrations of all components with Eq (1). in Figure 3. This was performed for the intermediately and strongly bound components, as well as for their sum, called totally bound 5/16-DSA, to construct binding curves for all FABPs and spin probes. […] Different fit functions were applied to the curves for a better qualitative and quantitative analysis.

FABP4 = target: T2, FABP4 (Homo sapiens, UniProt P15090); test: CW EPR spectra and spectral simulations of spin-probed fatty acids with FABP4
T2 construct: purchased Sigma Aldrich
Experimental: as §1, §2, §3

FABP5 [1] = target: T3, FABP5 (Homo sapiens, UniProt Q01469); test: DHA displacement of 16-DSA from FABP5 by CW EPR; conditions: FABP5/16-DSA/DHA 20/20/0, before DHA addition
T3 construct: purchased Sigma Aldrich
Excerpt: In a second addition during revision, we were curious about the question of whether our model ligands that bind with medium affinity to the FABP binding pocket will be displaced when we add a native ligand with higher affinity and whether we could detect this displacement with our CW EPR setup. The native ligand DHA was chosen for this displacement analysis since it is well-known to bind with high affinity to FABP5 ([26]). DHA was pre-dissolved in ethanol, diluted into buffer, and mixed with FABP5 and 16-DSA. […] Samples with FABP5/16-DSA/DHA ratios 20/20/0, 20/20/5, 20/20/10, 20/20/20, 20/20/50, and 20/20/100 were prepared with 5 min incubation time in between 16-DSA and DHA addition. […] We assume that the well-known high binding affinity of DHA refers to the state of strong binding within the pocket. […] Instead, a dynamic exchange of ligands seems to occur, as we consistently observe it with albumins from different species. However, this part opens the way to other future competitive binding assays via CW EPR spectroscopy, e.g., with pharmaceuticals that bind to FABPs.
CW EPR spectroscopic measurements were performed at X-band frequencies (∼9.4 GHz) with a benchtop spectrometer Magnettech MS-5000 (Freiberg Instruments GmbH, now Bruker Biospin). The samples were prepared in low-binding PCR tubes (250 μl). Protein and 5/16-DSA solutions were mixed with HEPES/NaCl buffer at pH 7.5, to obtain samples with a constant 5/16-DSA concentration of 20 μM and varying FABP concentrations of 200, 100, 50, 35, 25, 20, 15, 10 and 5 μM. After an incubation time of 20 min, the samples were transferred into glass capillaries, which were sealed with ‘Critoseal’. At first, solutions with 20 μM of 5/16-DSA were measured as references at 37 °C. The concentration series of FABP with 20 μM 5/16-DSA were measured at 37 °C, directly after preparation. Afterward, the sample capillaries were stored at 4 °C, and subsequent temperature-dependent measurements were performed. […]

FABP5 [2] = target: T3, FABP5; test: CW EPR spectra and spectral simulations of spin-probed fatty acids with FABP5; conditions: for increase of intermediately bound component: FABPx/16-DSA 20/20 μM
Experimental: as §1, §2, §3

[3] = 37 °C, 20 μM spin probe, EPR binding curve, read-out: KD,T,75′ (fit), apparent KD read at 75% totally bound
[4] = FABP3/16-DSA 100/100 μM/μM, 37 °C
[5] = changing the buffer from HEPES to TRIS, pH 7.5
[6] = lowering the pH from 7.5 to 6 in HEPES/NaCl
[7] = Hill fit, totally bound (T), y = bound 5/16-DSA
[8] = read-out: KD,T,50′ (fit), apparent KD read at 50% totally bound, 37 °C, 20 μM spin probe, EPR binding curve
[9] = Hill fit of EPR binding curve, totally bound, 37 °C
[10] = FABP5/16-DSA 100/100 μM/μM, 37 °C

T3 sequence (Q01469 whole entry): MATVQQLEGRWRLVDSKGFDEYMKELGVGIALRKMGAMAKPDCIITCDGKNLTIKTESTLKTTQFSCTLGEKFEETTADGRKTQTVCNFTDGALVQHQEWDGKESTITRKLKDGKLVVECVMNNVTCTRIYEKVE
T2 sequence (P15090 whole entry): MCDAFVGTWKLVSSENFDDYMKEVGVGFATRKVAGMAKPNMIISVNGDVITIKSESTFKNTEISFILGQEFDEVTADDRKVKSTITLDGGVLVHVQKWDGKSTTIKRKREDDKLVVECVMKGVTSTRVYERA
T1 sequence (P05413 whole entry): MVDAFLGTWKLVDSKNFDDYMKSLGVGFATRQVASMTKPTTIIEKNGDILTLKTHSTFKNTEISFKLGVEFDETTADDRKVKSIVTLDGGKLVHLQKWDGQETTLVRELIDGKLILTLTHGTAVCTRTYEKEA

CCC1(CCCCCCCCCCCCCCC(=O)O)OCC(C)(C)N1[O] (stereo not drawn) [16-DSA, 16-DOXYL stearic acid]
Kd (FABP3; 37 °C, 20 μM FABP3, 20 μM spin probe, read-out: KD,T,20μM (calculated, totally bound)): 1.08 ± 0.55 µM
Kd (FABP3; [3]): 18 ± 0.2 µM
Kd (FABP3; 37 °C, 50 μM FABP3, 20 μM spin probe, read-out: KD,T,50μM (calculated, totally bound)): 0.81 µM
ΔGF−I,100μM (free to intermediately bound) (FABP3; 37 °C, 100 μM FABP3): -8.05 ± 0.598 kcal/mol
ΔGF−S,100μM (free to strongly bound) (FABP3; 37 °C, 100 μM FABP3): -3.13 ± 0.024 kcal/mol
ΔGF−T,100μM (free to totally bound) (FABP3; 37 °C, 100 μM FABP3): -8.96 ± 1.29 kcal/mol
ΔGI−S,100μM (intermediately to strongly bound) (FABP3; 37 °C, 100 μM FABP3): 2.53 ± 0.048 kcal/mol
Kd (FABP3; 37 °C, 100 μM FABP3, 20 μM spin probe, read-out: KD,T,100μM (calculated, totally bound)): 0.48 µM
aiso, component (1) free (FABP3; 37 °C, EPR simulation): 44.1 MHz
aiso, component (2) intermediately bound (FABP3; 37 °C, EPR simulation): 41.6–42.6 MHz
aiso, component (3) strongly bound (FABP3; 37 °C, EPR simulation): 38.7 MHz
τc,iso, component (1) free (FABP3; 37 °C, EPR simulation): 0.04–0.1 ns
τc,iso, component (2) intermediately bound (FABP3; 37 °C, EPR simulation): 5.2–8.4 ns
τc,iso, component (3) strongly bound (FABP3; 37 °C, EPR simulation): 19.1–22.2 ns
intermediately bound proportion (FABP3; FABP3/16-DSA 10/10 μM/μM, 37 °C): 67.1%
intermediately bound proportion (FABP3; FABP3/16-DSA 20/20 μM/μM, 37 °C): 72.6%
intermediately bound proportion (FABP3; FABP3/16-DSA 50/50 μM/μM, 37 °C): 85.9%
intermediately bound proportion (FABP3; [4]): 90.3%
strongly bound component (FABP3; [4]): 2.8%
increase of intermediately bound component (FABP3; [5]): 6 to 8%
increase of intermediately bound component (FABP3; [6]): 16 to 18%
Hill fit k (FABP3; Hill fit, totally bound (T), x = c(FABP3)/c(5/16-DSA)): 0.535 ± 0.005
Hill fit Vmax (FABP3; [7]): 100.399 ± 0.459
Kd (FABP3; [8]): 10.6 ± 0.1 µM
Kd (FABP4; 37 °C, 20 μM FABP4, 20 μM spin probe, read-out: KD,T,20μM (calculated, totally bound)): 10 ± 0.75 µM
Kd (FABP4; [3]): 43.6 ± 0.4 µM
Kd (FABP4; 37 °C, 50 μM FABP4, 20 μM spin probe, read-out: KD,T,50μM (calculated, totally bound)): 8.5 ± 4.1 µM
ΔGF−I,100μM (free to intermediately bound) (FABP4; 37 °C, 100 μM FABP4): -6.79 ± 0.22 kcal/mol
ΔGF−T,100μM (free to totally bound) (FABP4; 37 °C, 100 μM FABP4): -6.79 ± 0.22 kcal/mol
Kd (FABP4; 37 °C, 100 μM FABP4, 20 μM spin probe, read-out: KD,T,100μM (calculated, totally bound)): 16.7 ± 0.44 µM
aiso, component (1) free (FABP4; 37 °C, EPR simulation): 44.1 MHz
aiso, component (2) intermediately bound (FABP4; 37 °C, EPR simulation): 44.7–48.0 MHz
τc,iso, component (1) free (FABP4; 37 °C, EPR simulation): 0.05–0.13 ns
τc,iso, component (2) intermediately bound (FABP4; 37 °C, EPR simulation): 4.0–5.8 ns
τc,iso, component (3) strongly bound (FABP4; 37 °C, EPR simulation): 22.2 ns
Hill coefficient n (FABP4; [9]): 1.454 and > 1
Hill fit k (FABP4; Hill fit, totally bound (T), x = c(FABP4)/c(5/16-DSA)): 0.797 ± 0.047
Hill fit Vmax (FABP4; [7]): 92.29 ± 2.876
Kd (FABP4; [8]): 17.8 ± 0.2 µM
bound 16-DSA (FABP5 [1]): 72%
Kd (FABP5 [2]; 37 °C, 20 μM FABP5, 20 μM spin probe, read-out: KD,T,20μM (calculated, totally bound)): 2.14 ± 0.7 µM
Kd (FABP5 [2]; [3]): 22 ± 0.2 µM
Kd (FABP5 [2]; 37 °C, 50 μM FABP5, 20 μM spin probe, read-out: KD,T,50μM (calculated, totally bound)): 5.87 ± 1.21 µM
ΔGF−I,100μM (free to intermediately bound) (FABP5 [2]; 37 °C, 100 μM FABP5): -6.38 ± 0.072 kcal/mol
ΔGF−S,100μM (free to strongly bound) (FABP5 [2]; 37 °C, 100 μM FABP5): -4.64 ± 0.024 kcal/mol
ΔGF−T,100μM (free to totally bound) (FABP5 [2]; 37 °C, 100 μM FABP5): -7.17 ± 0.19 kcal/mol
ΔGI−S,100μM (intermediately to strongly bound) (FABP5 [2]; 37 °C, 100 μM FABP5): 0.956 ± 0.024 kcal/mol
Kd (FABP5 [2]; 37 °C, 100 μM FABP5, 20 μM spin probe, read-out: KD,T,100μM (calculated, totally bound)): 8.9 ± 0.34 µM
aiso, component (1) free (FABP5 [2]; 37 °C, EPR simulation): 44.1 MHz
aiso, component (2) intermediately bound (FABP5 [2]; 37 °C, EPR simulation): 37–42.3 MHz
aiso, component (3) strongly bound (FABP5 [2]; 37 °C, EPR simulation): 37 MHz
τc,iso, component (1) free (FABP5 [2]; 37 °C, EPR simulation): 0.05–0.07 ns
τc,iso, component (2) intermediately bound (FABP5 [2]; 37 °C, EPR simulation): 5.7 ns
τc,iso, component (3) strongly bound (FABP5 [2]; 37 °C, EPR simulation): 22.2 ns
totally bound fraction (FABP5 [2]; 37 °C, high FABP5 excess): 93%
intermediately bound proportion (FABP5 [2]; FABP5/16-DSA 10/10 μM/μM, 37 °C): 61.5%
intermediately bound proportion (FABP5 [2]; FABP5/16-DSA 20/20 μM/μM, 37 °C): 72.2%
intermediately bound proportion (FABP5 [2]; FABP5/16-DSA 50/50 μM/μM, 37 °C): 80.8%
intermediately bound proportion (FABP5 [2]; [10]): 81%
strongly bound component (FABP5 [2]; [10]): 9.5%
increase of intermediately bound component (FABP5 [2]; [5]): 6 to 8%
increase of intermediately bound component (FABP5 [2]; [6]): 16 to 18%
Hill coefficient n (FABP5 [2]; [9]): 0.852 ± 0.04 and < 1
Hill fit k (FABP5 [2]; Hill fit, totally bound (T), x = c(FABP5)/c(5/16-DSA)): 0.315 ± 0.011
Hill fit Vmax (FABP5 [2]; [7]): 98.288 ± 1.318
Kd (FABP5 [2]; [8]): 7.6 ± 0.1 µM
